# According to patent US20140057840A1, “ANTI-ANDROGENIC AGENT, SEBUM SECRETION BLOCKER, HAIR GROWTH STIMULANT, AND FOOD OR BEVERAGE” (LOTTE CO., LTD., priority 2009, published 2014):
# Tested on: hamster sebocytes
# Experiment: Sebocyte culture test (sebum synthesis amount, Oil Red O staining)
# Type: cell-based, golden hamster
# Details: concentration of 1×10^−5 M; microscopic observation and absorbance measurement; medium with 1×10^−6M testosterone; about 2 weeks
# Method: 1. The test was carried out using a hamster sebocyte culture kit KB-1000 (manufactured by KURABO […] LTD.).
# The sebocyte cell derived from the auricula of a normal golden hamster was inoculated in a 24-well plate in a density of 5.0×10^4 cells/well. During the test, the cell was cultured in medium containing testosterone in a concentration of 1×10^−6M.
# 2. The cell was cultured for several days until confluent, and the medium was exchanged with medium containing the test sample. The medium was exchanged with sample medium every other day and the culture was continued for about 2 weeks.
# In this test, cow's lactoferrin was prepared to be used as the lactoferrin, and spironolactone was used as a control.
# 3. Then, using a sebum synthesis assay kit SE-3001 (manufactured by KURABO […], LTD.), a WST-8 solution was added to each well and incubated for 30 minutes at 37° C. The supernatant was assayed at a wavelength of 450 nm, and the number of viable cell was counted.
# 4. Further, the supernatant was stained with Oil Red O and observed under a microscope while extracted with 100% isopropanol and measured at a wavelength of 520 nm for the lipid synthesis amount. […]
# Comparison of lipid synthesis amount per cell=absorbance B/absorbance A
# Absorbance A: cell number measured value (450 nm)
# Absorbance B: lipid synthesis amount measured value (520 nm)
compound,measurement,value
"CC(=O)S[C@@H]1CC2=CC(=O)CC[C@]2(C)[C@H]2CC[C@@]3(C)[C@@H](CC[C@@]34CCC(=O)O4)[C@H]12 [spironolactone, reference compound]",sebum synthesis amount compared with the control,decreased sebum synthesis amount compared with the control
